Molecular target: T1, human TRPM8 (Homo sapiens, UniProt Q7Z2W7)
T1 construct: expressed in transfected cells
Assay: In Vitro human TRPM8 Functional Assay (intracellular Ca2+, Fluo4, FDSS, menthol activation)
Assay type: cell-based
Details: HEK293 cells stably expressing human TRPM8; activation with L-(-)-Menthol; 11-point dose-response
Description: In Vitro human TRPM8 Functional Assay
The functional activity of compounds was determined by measuring changes in intracellular calcium concentration using a Ca^2+-sensitive fluorescent dye, Fluo4 (Molecular Probes). The changes in fluorescent signal were monitored by the cell imaging technology by Hamamatsu Photonics's Functional Drug Screening System (FDSS).
HEK293 cells stably expressing human TRPM8 were grown in T175 flasks, in a 5% CO2 humidified incubator to about 80% confluence. Media composition consisted of Dulbecco's Modified Eagle Medium (high glucose), 10% fetal calf serum (FCS), 100 units/ml Penicillin, 100 microg/ml Streptomycin and 600 microg/ml Geneticine.
1. Plate-out HEK293-TRPM8 cells (40 microL medium containing 30,000 cells per well) into poly-D-lysine coated 384-well plates (BD FALCON) at 24 hours prior to assay.
1. […] 2. […] 3. Place the plate at room temperature in dark for 1 hour. 4. […] 5. Add 20 microL of compound solutions into each well and leave the plate for 5 minutes under the dark at room temperature. 6. Measure activity by FDSS as follows: • Set the assay plate on the stacker of FDSS • Start the detection of fluorescence intensity • After 30 sec, add 20 microL of 90 microM L-(−)-Menthol
IC50 values for compounds of the present invention were determined from 11-point dose-response studies. Curves were generated using the average of duplicate wells for each data point. Finally, the IC50 values are calculated with the best-fit dose curve determined by XLfit (ID Business Solutions Ltd.).

T1 sequence (Q7Z2W7 whole entry): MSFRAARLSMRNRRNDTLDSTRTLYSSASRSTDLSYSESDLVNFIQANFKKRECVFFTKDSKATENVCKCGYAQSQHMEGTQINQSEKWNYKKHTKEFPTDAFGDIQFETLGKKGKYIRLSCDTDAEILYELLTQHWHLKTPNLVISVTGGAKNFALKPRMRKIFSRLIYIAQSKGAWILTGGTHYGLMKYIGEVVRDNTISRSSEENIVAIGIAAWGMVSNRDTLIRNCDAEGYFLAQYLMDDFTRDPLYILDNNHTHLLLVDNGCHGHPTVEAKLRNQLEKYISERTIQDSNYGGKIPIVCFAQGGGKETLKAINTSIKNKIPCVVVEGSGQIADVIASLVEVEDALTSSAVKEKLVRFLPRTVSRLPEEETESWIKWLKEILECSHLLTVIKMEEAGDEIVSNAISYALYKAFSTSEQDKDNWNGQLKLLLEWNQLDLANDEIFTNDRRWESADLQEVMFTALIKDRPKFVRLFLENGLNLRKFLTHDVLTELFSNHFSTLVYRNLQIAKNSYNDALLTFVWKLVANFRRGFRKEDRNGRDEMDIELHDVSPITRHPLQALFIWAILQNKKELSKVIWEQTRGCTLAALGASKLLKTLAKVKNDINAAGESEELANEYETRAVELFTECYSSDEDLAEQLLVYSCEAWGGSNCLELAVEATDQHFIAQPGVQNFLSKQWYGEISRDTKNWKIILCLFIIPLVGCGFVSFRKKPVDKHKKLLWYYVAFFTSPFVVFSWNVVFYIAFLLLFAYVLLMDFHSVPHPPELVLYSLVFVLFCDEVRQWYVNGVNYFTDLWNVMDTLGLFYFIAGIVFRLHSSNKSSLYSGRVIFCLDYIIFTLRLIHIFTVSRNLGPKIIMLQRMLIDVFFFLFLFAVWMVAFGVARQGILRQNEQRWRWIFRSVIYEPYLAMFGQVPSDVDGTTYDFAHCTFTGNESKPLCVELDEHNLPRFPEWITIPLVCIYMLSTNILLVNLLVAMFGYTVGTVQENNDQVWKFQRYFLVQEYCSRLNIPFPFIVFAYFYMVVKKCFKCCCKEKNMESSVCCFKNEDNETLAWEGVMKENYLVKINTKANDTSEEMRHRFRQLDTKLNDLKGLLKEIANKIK

IC50 [µM]	Compound
< 1	O=C(O)c1ccc(S(=O)(=O)N(Cc2ccccc2OC(F)(F)F)c2ncc(C(F)(F)F)cc2Cl)cc1 [Example 51, 4-(N-(3-Chloro-5-(trifluoromethyl)pyridin-2-yl)-N-(2-(trifluoromethoxy)benzyl)sulfamoyl)benzoic acid]
< 1	O=C(O)c1ccc(S(=O)(=O)N(Cc2ccc(C(F)(F)F)cc2)c2ncc(Cl)cc2Cl)cc1 [Example 54, 4-(N-(3,5-Dichloropyridin-2-yl)-N-(4-(trifluoromethyl)benzyl)sulfamoyl)benzoic acid]
< 1	Cc1cc(Cl)cnc1N(Cc1ccc(C(F)(F)F)cc1)S(=O)(=O)c1ccc(C(=O)O)cc1 [Example 55, 4-(N-(5-Chloro-3-methylpyridin-2-yl)-N-(4-(trifluoromethyl)benzyl)sulfamoyl)benzoic acid]
< 1	O=C(O)c1ccc(S(=O)(=O)N(Cc2ccccc2)c2ccc(C(F)(F)F)cc2Cl)cc1 [Example 56, 4-(N-Benzyl-N-(2-chloro-4-(trifluoromethyl)phenyl)sulfamoyl)benzoic acid]
1 to 10	O=C(O)c1ccc(S(=O)(=O)N(CCN2CCOCC2)c2ncc(C(F)(F)F)cc2Cl)cc1 [Example 57, 4-(N-(3-Chloro-5-(trifluoromethyl)pyridin-2-yl)-N-(2-morpholinoethyl)sulfamoyl)benzoic acid]
< 1	O=C(O)c1ccc(S(=O)(=O)N(CCCc2ccccc2)c2ncc(C(F)(F)F)cc2Cl)cc1 [Example 59, 4-(N-(3-Chloro-5-(trifluoromethyl)pyridin-2-yl)-N-(3-phenylpropyl)sulfamoyl)benzoic acid]
< 1	O=C(O)c1ccc(S(=O)(=O)N(Cc2ccc(F)cc2)c2ncc(Cl)cc2Cl)cc1 [Example 61, 4-(N-(3,5-Dichloropyridin-2-yl)-N-(4-fluorobenzyl)sulfamoyl)benzoic acid]
< 1	O=C(O)c1ccc(S(=O)(=O)N(Cc2ccc(Cl)c(F)c2)c2ncc(Cl)cc2Cl)cc1 [Example 62, 4-(N-(4-Chloro-3-fluorobenzyl)-N-(3,5-dichloropyridin-2-yl)sulfamoyl)benzoic acid]
< 1	O=C(O)c1ccc(S(=O)(=O)N(Cc2ccc(OC(F)(F)F)cc2)c2ncc(Cl)cc2Cl)cc1 [Example 63, 4-(N-(3,5-Dichloropyridin-2-yl)-N-(4-(trifluoromethoxy)benzyl)sulfamoyl)benzoic acid]
< 1	O=C(O)c1ccc(S(=O)(=O)N(Cc2ccccc2C(F)(F)F)c2ncc(Cl)cc2Cl)cc1 [Example 64, 4-(N-(3,5-Dichloropyridin-2-yl)-N-(2-(trifluoromethyl)benzyl)sulfamoyl)benzoic acid]
< 1	O=C(O)c1ccc(S(=O)(=O)N(Cc2ccc(Cl)c(F)c2)c2ncc(C(F)(F)F)cc2Cl)cc1 [Example 65, 4-(N-(4-Chloro-3-fluorobenzyl)-N-(3-chloro-5-(trifluoromethyl)pyridin-2-yl)sulfamoyl)benzoic acid]
< 1	O=C(O)c1ccc(S(=O)(=O)N(Cc2ccc(Cl)c(C(F)(F)F)c2)c2ncc(Cl)cc2Cl)cc1 [Example 66, 4-(N-(4-Chloro-3-(trifluoromethyl)benzyl)-N-(3,5-dichloropyridin-2-yl)sulfamoyl)benzoic acid]
< 1	Cc1ccc(CN(c2ncc(Cl)cc2Cl)S(=O)(=O)c2ccc(C(=O)O)cc2)cc1F [Example 67, 4-(N-(3,5-Dichloropyridin-2-yl)-N-(3-fluoro-4-methylbenzyl)sulfamoyl)benzoic acid]
< 1	Cc1ccc(CN(c2ncc(Cl)cc2Cl)S(=O)(=O)c2ccc(C(=O)O)cc2)cc1C(F)(F)F [Example 68, 4-(N-(3,5-dichloropyridin-2-yl)-N-(4-methyl-3-(trifluoromethyl)benzyl)sulfamoyl)benzoic acid]
< 1	O=C(O)c1ccc(S(=O)(=O)N(Cc2ccc(F)c(Cl)c2)c2ncc(Cl)cc2Cl)cc1 [Example 69, 4-(N-(3-Chloro-4-fluorobenzyl)-N-(3,5-dichloropyridin-2-yl)sulfamoyl)benzoic acid]

Reference: US20120094964A1, “SULFAMOYL BENZOIC ACID DERIVATIVES AS TRPM8 ANTAGONISTS” (priority 2009, published 2012)
